This note sets out measurements from US20200270232A1, “INHIBITORS OF INTEGRATED STRESS RESPONSE PATHWAY” (Praxis Biotech LLC, priority 2019, published 2020).

The subject of assay [1] is Chinese hamster ovary (CHO) cells. The experiment in a line: Protein translation assay (puromycin labelling, western blot). The settings on record: 2 hours, media alone = 100%; for activity at 1 µM: Cricetulus griseus, unstressed CHO cells (without Tg), 1 μM test compound, read-out: % Protein synthesis relative to untreated (1 μM test compound); for % Recovery of protein synthesis (1 μM test compound): stressed CHO cells, 300 nM Tg, Tg alone = 0%. The class given is cell-based. The procedure:
Chinese hamster ovary (CHO) cells were maintained at 37° C. and 5% C02 in Dulbecco's Modified Eagle's Media (DMEM) supplemented with 10% fetal bovine serum, 2 mM L-glutamine, 100 U/ml penicillin, and 100 μg/ml streptomycin. After reaching 80% of confluence, cells were detached and seeded on 6 well plates in complete media, allowed to recover overnight and treated for 2 hours with 1 μM of the test compound (to assess protein synthesis levels in unstressed condition), or for 2 hours with 300 nM Tg in the presence of 1 μM of the test compound (to assess the recovery of protein synthesis in a stressed condition). Cells with Tg alone were used as controls.
After the 2 hours treatments, media were replaced by adding 10 μg/ml puromycin (Sigma Aldrich # P8833) in complete media for 30 min. Media were removed and cells were lysed with SDS-PAGE lysis buffer. Lysates were transferred to 1.5 ml tubes and sonicated for 3 min and total protein amount were quantified using BCA Protein Assay Kit (Pierce). Equal amount of protein (30 μg) was loaded on SDS-PAGE gels. Proteins were transferred onto 0.2 μm PVDF membranes (BioRad) and probed with primary antibodies diluted in Tris-buffered saline supplemented with 0.1% Tween 20 (Merck # S6996184 505) and 3% bovine serum albumin (Rockland # BSA-50).
Puromycin (12D10) (Merck # MABE343) and β-actin (Sigma Aldrich # A5441) antibodies were used as primary antibody. A HRP-conjugated secondary antibody (Rockland) was employed to detect immune-reactive bands using enhanced chemiluminescence (ECL Western Blotting Substrate, Pierce). Quantification of protein bands was done by densitometry using ImageJ software.
Percent increase of protein synthesis in unstressed cells (without Tg treatment) in the presence of media alone or certain test compounds is shown in Table 3. The percentage levels were normalized to the media alone condition, which correspond to 100% protein synthesis.
Percent recovery of protein synthesis in stressed cells (with Tg treatment) due to the test compounds at 1 μM is also shown in Table 3. The levels were normalized to the media alone and Tg alone conditions, which correspond to 100% and 0% respectively.

In another assay the test system is ATF4. The experiment in a line: ATF4 expression inhibition assay (ATF4 luciferase reporter). The settings on record: Homo sapiens, HEK-293T; HEK293T cells carrying the ATF4 luciferase reporter, 100 nM thapsigargin (Tg), 3 hours; read-out: ATF4 inhbition IC50. The class given is cell-based. The procedure:
The ATF4 reporter was prepared by fusing the human full length 5′UTR of ATF4 (NCBI Accession No. BC022088.2) upstream of the firefly luciferase coding sequence lacking the initiator methionine. The fused sequence was cloned into pLenti-EF1a-C-Myc-DDK-IRES-Puro cloning vector (Origen # PS 100085) using standard methods. Virus production was carried out by using Lenti-X™ Packaging Single Shots Protocol (Clonetech #631276). Viral particles were used to transduce HEK293T cells (ATCC # CRL-3216, ATCC Manassas, Va.), which were subsequently selected with puromycin to generate stable cell line. Cells were maintained at 37° C. and 5% CO2 in DMEM-F12 (Hyclone # SH30023.02) supplemented with 10% heat-inactivated fetal bovine serum (Gibco #16000-044), 2 mM L-glutamine (Gibco #25030-081), 100 U/ml penicillin, and 100 μg/ml streptomycin (Gibco #15140-122).
HEK293T cells carrying the ATF4 luciferase reporter were plated on 96-well plates (Nunc) at 10,000 cells per well. Cells were treated two days after seeding with 100 nM thapsigargin (Tg) (Sigma-Aldrich # T9033) in the presence of different concentrations of selected compounds ranging from 1 nM to 10 μM. Cells without treatment or cells treated with Tg alone were used as controls. Assay plates containing cells were incubated for 3 hours at 37° C.
Luciferase reactions were performed using Luciferase Assay System (Promega # E1501) as specified by the manufacturer. Luminescence was read with an integration time of 1 s and a gain of 110 using a Cytation-5 multi-mode microplate reader (BioTek). Relative luminescence units were normalized to Tg treatment (0% inhibition) and untreated cells (100% inhibition) and the percentage of ATF4 inhibition was calculated.
Accordingly, inhibition of ATF4 expression as a result of the test compound indicates suppression of the ISR pathway.

Turning to `O=C(COc1ccc(Cl)c(F)c1)NCC1CCN(CC(O)COc2ccc(Cl)c(F)c2)C1` (stereo not shown) [Compound 7, 2-(4-chloro-3-fluorophenoxy)-N-((1-(3-(4-chloro-3-fluorophenoxy)-2-hydroxypropyl)pyrrolidin-3-yl)methyl)acetamide], in assay [1], the activity at 1 µM was determined as 122%. Moreover, the IC50 (in general, the concentration at which inhibition is half-maximal) in the assay on ATF4 was greater than 0.1 µM.

Consider `O=C(COc1ccc(Cl)c(F)c1)N[C@H]1CC[C@H](NC(=O)COc2ccc(Cl)c(F)c2)C1` [Compound 1, N,N′-((1S,3S)-cyclopentane-1,3-diyl)bis(2-(4-chloro-3-fluorophenoxy)acetamide)], for which the activity at 1 µM in assay [1] stood at 46.9%. The IC50 in the assay on ATF4 turned out to be 0.856 µM.

In the case of `O=C(NC1CCC(NC[C@H](O)COc2ccc(Cl)c(F)c2)C1)c1cc2cc(Cl)ccc2o1` (stereo partly drawn) [Compound 83, 5-chloro-N-(3-(((S)-3-(4-chloro-3-fluorophenoxy)-2-hydroxypropyl)amino)cyclopentyl)benzofuran-2-carboxamide], in assay [1], the activity at 1 µM amounted to 129% and the “% Recovery of protein synthesis (1 μM test compound)” value (from here on “% Recovery of protein synthesis”) was 175.2%. The IC50 in the assay with ATF4 was greater than 1 µM.

Take `O=C(NC1CC[C@H](NC[C@@H](O)COc2ccc(Cl)c(F)c2)C1)c1cc2cc(Cl)ccc2o1` (stereo partly drawn) [Compound 90, 5-chloro-N-((3S)-3-(((R)-3-(4-chloro-3-fluorophenoxy)-2-hydroxypropyl)amino)cyclopentyl)benzofuran-2-carboxamide]: in assay [1], the activity at 1 µM turned out to be 210% and the “% Recovery of protein synthesis” value amounted to 269.7%. Besides, the IC50 in the assay on ATF4 was found to be 0.0578 µM.

For the compound `O=C(NCC1CCC(NCC(O)COc2ccc(Cl)c(F)c2)C1)c1ccc2cc(Cl)ccc2n1` (stereo not shown) [Compound 34, 6-chloro-N-((3-((3-(4-chloro-3-fluorophenoxy)-2-hydroxypropyl)amino)cyclopentyl)methyl)quinoline-2-carboxamide], in assay [1], the activity at 1 µM turned out to be 166% and the “% Recovery of protein synthesis” value was 122.6%. Moreover, in the assay with ATF4, the IC50 was greater than 1 µM.

With `O=C(NC1CCN(CCCOc2ccc(Cl)c(F)c2)C1)c1cc2cc(Cl)ccc2o1` (stereo not shown) [Compound 101, 5-chloro-N-(1-(3-(4-chloro-3-fluorophenoxy)propyl)pyrrolidin-3-yl)benzofuran-2-carboxamide], in assay [1], the activity at 1 µM was 93.2% and the “% Recovery of protein synthesis” value was 86.10%. Moreover, the IC50 in the assay on ATF4 is greater than 0.1 µM.

On to `O=C(COc1ccc(Cl)c(F)c1)NCC1CCN(C(=O)c2ccc3cc(Cl)ccc3n2)C1` (stereo not shown) [Compound 5, 2-(4-chloro-3-fluorophenoxy)-N-((1-(6-chloroquinoline-2-carbonyl)pyrrolidin-3-yl)methyl)acetamide], for which, in assay [1], the activity at 1 µM is 94.2% and the “% Recovery of protein synthesis” value is 0.00%. For the same compound, the IC50 with ATF4 was greater than 0.1 µM.

In the case of `O=C(COc1ccc(Cl)c(F)c1)NCC1CCN(NC(=O)COc2ccc(Cl)c(F)c2)C1` (stereo not shown) [Compound 92, 2-(4-chloro-3-fluorophenoxy)-N-(3-((2-(4-chloro-3-fluorophenoxy)acetamido)methyl)pyrrolidin-1-yl)acetamide], in assay [1], the activity at 1 µM came to 93.6% and the “% Recovery of protein synthesis” value was 45.8%. For the same compound, the IC50 in the assay with ATF4 was determined as 0.0141 µM.
